Test results: paper PMC6269819, “Evaluation of the Biological Activity of Naturally Occurring 5,8-Dihydroxycoumarin” (Molecules, 2013)
Marks after values point to notes of the source that are not given here.

How the values were obtained:
[1] = system: Chinese hamster ovary (CHO) cells; details: doses up to 333 μM; cited from earlier work
[2] = system: Drosophila melanogaster wing cells; assay: Somatic mutation and recombination test (SMART), wing spot test; format: in vivo; details: positive control, 50 μM MMS
Experimental: The basic procedures for the D. melanogaster somatic mutation and recombination test (SMART) were performed according to Graf and co-workers. Two D. melanogaster strains (kindly provided by Dr. H. Frei, Zurich, Switzerland) were used in the present study: virgin females from the strain ORR/ORR; flr^3/ In (3LR) TM3, ri p^p sep l(3)89Aa bx^34e e Bd^S were mated with mwh/mwh males. The ORR strain has chromosomes 1 and 2 from a DDT-resistant Oregon line, which are characterized by constitutively over-expressed CYP450 genes. The CYP 450 enzymes play the main role in the bioactivation of xenobiotics, as well as natural products including phytochemicals. Thus, the use of this high-bioactivation strain of D. melanogaster facilitates the detection of promutagens of numerous classes of compounds. The markers mwh (multiple wing hairs) and flr^3 (misshapen, flare-like hairs) are recessive wing-hair mutations located on the third chromosome at 0.3 and 38.8 respectively.
Eggs from the crosses were collected over 10 h periods. Progeny were raised on the Instant Drosophila Medium (Sigma Chemical Co., St. Louis, MO, USA) at 25 °C. Two schedules of the larvae treatment were applied. Firstly, the crossed flies were permitted to lay eggs for 10 h in vials containing medium prepared with 5,8-DHC solution. Thus, the exposure duration was about 120 h (i.e., evolutionary period from fly egg till case-worm). According to the second schedule, the 72 ± 5 h-old larvae were exposed to 5,8-DHC by adding test solution to the surface of the medium and were fed on this medium for the rest of their development, during approximately 48 h. 5,8-DHC was dissolved in ethanol and then diluted with distilled water to the desired concentration, with the final ethanol concentration 5% v/v. The solutions were always prepared immediately before use. Solvent controls were included in all treatments. Methyl methanesulfonate was included in the assay as a positive control. Trans-heterozygous (mwh flr^+ / mwh^+ flr^3) flies were collected and stored in a 70% ethanol. The wings of adult flies were mounted on glass slides in Faure’s solution, coded and scored at 400× magnification (Nikon E200) for the presence of single (mwh or flr^3 phenotype) or twin (adjacent mwh and flr^3 clones) spots. The spots were recorded according to standard procedures. No less than 40 wings were analysed per each experimental point. Two repeated experiments were carried out.

human lymphocytes = assay: Chromosome aberrations in human lymphocyte cultures in vitro; format: cell-based; details: female, human, 24 h, 0.02 µL/mL
Experimental: Blood samples were taken from two healthy female volunteers (donor A) and (donor B). Whole peripheral blood was grown in HEPES-buffered RPMI 1640 medium supplemented with 12% heat-inactivated newborn calf serum, 7.8 μg/mL phytohemagglutinin P, 50 μg/mL gentamycin, 10 μg/mL 5-bromo-2'-deoxyuridine. All reagents used for the cell culture were purchased from Sigma-Aldrich Chemical Co. (St. Louis, MO, USA). Cell cultures were incubated at 37 °C for 72 h. Treatment with test compounds was carried out 48 h after culture initiation and lasted for the period of 24 h. Dose range of 5,8-DHC (10 to 40 µg/mL) was based on pilot experiments (data not shown). As whole blood cultures display many properties common with the liver microsomal cytochrome P450 system, no external metabolising enzymes were added. 5,8-DHC was dissolved in ethanol and then diluted with RPMI 1640 medium to the desired concentration. Ethanol in a final concentration of 7.5µL/mL was used as a solvent control. […] Working solutions were made just before treatment. Two parallel cultures were used for each concentration of the compound tested. Two cultures were left untreated and served as a blank control. Methyl methanesulfonate (MMS) in a final concentration of 0.02 μL/mL was used as a positive control. The cultures were exposed to colchicine at a final concentration of 0.6 μg/mL for the last 3 h of incubation. The cells were harvested, hypotonically swollen in 0.075 M KCl and fixed in methanol: acetic acid (3:1). Air-dried slides were differentially stained by fluorescence plus Giemsa technique as has been described previously. Briefly, the slides were stained for 10 min. with 10 μg/mL of Hoechst 33258 dye (dissolved in 0.07 M Soerensen’s buffer, pH 6.8). Then the slides were rinsed, mounted with citrate buffer (pH 8.5), covered with cover slips and exposed to UV light (400 W mercury lamp at a distance of 15 cm) for 6–7 min. Slides were then rinsed and stained for 3–4 min. with 5% Giemsa. Cytogenetic analysis was performed on coded slides. No less than 100 first-mitotic division metaphases per culture were analysed for CAs, and no less than 50 second-division metaphases for SCEs.

male rat hepatocytes = details: cited from earlier work
[3] = system: Wistar rat bone marrow cells; details: rats, single 30–40 mg/kg dose of CP; cited from earlier work
[4] = system: Wistar rat bone marrow cells; assay: Micronucleus in vivo assay in rat bone marrow; details: single i.p. 30 mg/kg b.w., sacrifice 24 h
Description: Male albino Wistar rats aged 8–10 weeks and having body weight of 200–220 g, were used in the present study. The animals were supplied by the Animal Facility of the Department of Immunology, State Research Institute Center for Innovative Medicine. Ethical approval was given by the Committee of the Lithuanian Animal Care and Use. Prior to the start of the study, the animals were acclimatized for 7 days. They were housed under conditions of constant temperature, humidity and a light/dark cycle of 12 h/12 h with free access to standard commercial pellet diet and drinking water. The animals were randomly distributed into 11 experimental groups of six rats each.
We used a mixture of dimethylsulfoxide (DMSO) and sunflower oil (1:2) as the vehicle for 5,8-DHC (5,8-DHC was dissolved in DMSO and adjusted to the desired dose with sunflower oil immediately before administration). For the acute treatment, the animals received single intraperitoneal (i.p.) injections of 10 or 20 mg/kg of 5,8-DHC in 1 mL volume per 100 g body weight (b.w.). The negative control group comprised animals, given a single i.p. injection of vehicle (1 mL/100 g b.w.) and the positive control group, given cyclophosphamide (CP, 30 mg/kg adjusted in 0.5 mL/100 g b.w. in sterile physiological saline). A commercial form of cyclophosphamide was used (‘Endoxan’, ASTA Medica AG, Frankfurt, Germany). Blank controls comprised untreated animals. For the repeated treatment, 5,8-DHC (10 or 20 mg/kg) or vehicle was administered via gavage (1 mL/100 g b.w.) once a day for 3 consecutive days. Animals were sacrificed 24 h or 48 h after the last dose administration. Colchicine was applied i.p. at a dose of 2 mg/kg b.w. in 1 mL volume 90 min before sacrifice. Both femurs were dissected from each animal and used to obtain bone marrow preparations for the analysis of chromosome aberrations and micronucleus.
The bone marrow MN assay was conducted according to the standard procedure. Ends of the femura were cut off and the bone marrow was washed out with 2 mL of heat-inactivated foetal calf serum (Biochrom AG, Berlin, Germany), mixed thoroughly to obtain a fine suspension and centrifuged for 5 min at 150 × g. The supernatant was discarded and the cell pellet was carefully re-suspended. At least two smears per animal were prepared and allowed to air dry prior to fixation with methanol. The slides were stained in May-Grünwald solution followed by Giemsa (both Merck), coded and scored blind by the same scorer under magnification of 1000× (Jenaval, Zeiss, Jena, Germany). Micronucleated polychromatic erythrocyte (MNPCE) frequencies were based on the observation of 2,000 immature polychromatic erythrocytes (PCEs). Bone marrow toxicity was monitored by a decrease of PCE to total erythrocytes (e.g., PCEs+NCEs, normochromatic erythrocytes). At least 1,000 bone marrow erythrocytes per animal were analysed.

In the case of O=c1ccc2ccc(O)cc2o1 [umbelliferone, 7-hydroxycoumarin], the “increase in SCE or chromosome aberration” value [1] is given as “no evidence of increase”.
For COS(C)(=O)=O [MMS, Methyl methanesulfonate, reference compound], the large single spots [2] was 4.63, the small single spots [2] was 1.65 and the “total spots per wing” value [2] was 7.15 spots per wing. The twin spots [2] was 0.88, the wings with spots [2] was 100% and the “CA per 100 cells (±S.E.M.)” value (human lymphocytes) was 12.0 ± 3.2 ^b per 100 cells.
For O=c1ccc2ccccc2o1 [coumarin, 1,2-benzopyrone], the “induction of UDS” value (male rat hepatocytes; oral administration, doses up to 320 mg/kg bw) is given as “does not induce UDS” and the maximum tolerated dose (male rat hepatocytes; rat, in vivo, po) is given as 320 mg/kg bw.
For O=P1(N(CCCl)CCCl)NCCCO1 (stereo not drawn) [CP, cyclophosphamide, reference compound], the “frequency of abnormal metaphases” value [3] is given as 16–21%, the “MNPCE (%± S.E.M.)” value [4] is given as 1.67 ± 0.22 ^a % and the “PCE (%± S.E.M.)” value [4] is given as 34.8 ± 6.4%.
